Results published in article PMC5766233, “Ternary copper(II) complex: NCI60 screening, toxicity studies, and evaluation of efficacy in xenograft models of nasopharyngeal carcinoma” (PLoS ONE, 2018).
Like-named read-outs stand apart in the source and are kept apart here.

Tests used:
CYP1A = assay: Cytochrome P450 induction assay in rat primary hepatocytes, CYP1A; format: in vitro ADME; conditions: for Fold induction CYP1A: 3 days; for % of positive control CYP1A: positive control 3-methyl cholanthrene 1.0 μM
Description: %Activity=(averagearearatiooftreated/averagearearatioofbasalcontrol)x100

[1] = system: CYP isoforms 1A2, 2C9, 2C19, 2D6, 2B6, 2C8 and 3A4; assay: CYP450 inhibition assay, summary over all tested isoforms; format: in vitro ADME, human; conditions: pooled probe substrates; read-out: IC50 values against all tested isoforms
Procedure: In the CYP inhibition assay, human liver microsomes were incubated with the Cu(II) complex or reference standard. The inhibitory effects of these compounds were investigated against the major CYP isoforms namely 1A2, 2C9, 2C19, 2D6, 2B6, 2C8 and 3A4 with their respective isoform probe substrates in one reaction mixture (pooled probe substrate format using LC-MS/MS).
Pooled human liver microsomes (Sekisui Xeno Tech, LLC., Kansas City, KS, USA) were incubated with different concentrations of Cu(II) complex or reference standards in buffer containing 0.1% DMSO for 10 min at 37°C and the residual enzyme activity was measured using pooled probe substrates method by pooled LC-MS/MS. Briefly, incubation mixtures were prepared in a total volume of 200 μL with final component concentrations as follows: 0.1 M potassium phosphate buffer (pH 7.4), 1.5 mM NADPH, and 0.25 mg/ml HLM. […] After 20 min of incubation, the reactions were terminated by addition of 200 μL ice-cold acetonitrile (Rankem, Avantor Performance Materials India Limited, Andhra Pradesh, India) containing telmisartan and carbamazepine as internal standards (all probe substrates and standards were from Sigma Aldrich). […] The percent inhibition was calculated using the following equation: %Inhibition=100‑[(activityintestwells/activityinbasalcontrolwells)×100]

[2] = system: NCI60 human cancer cell line panel
rat primary hepatocytes = assay: Cytotoxicity in rat primary hepatocytes (resazurin); conditions: 72 h
CYP 2C9 = molecular target: T1, CYP 2C9 (Homo sapiens, UniProt P11712); assay: CYP450 inhibition assay, pooled human liver microsomes; format: in vitro ADME; conditions: probe tolbutamide
T1 construct: Pooled human liver microsomes (Sekisui Xeno Tech, LLC., Kansas City, KS, USA) were incubated; tissue Sekisui Xeno Tech, LLC; host or cells: pooled human liver microsomes

[3] = system: C666-1-GFP-Luc2 xenograft; assay: In vivo efficacy in C666-1-GFP-Luc2 xenograft model; design: species or system NOD scid gamma female mice
Description: Next, we assessed the anticancer efficacy of the Cu(II) complex on another NPC xenograft, the EBV positive C666-1-GFP-Luc2 cells. […] Two mice in this group completed the 14 doses but died on the last day of the experiment while one mouse died on day 13 after receiving 12 doses of the Cu(II) complex. […] Harvested major organs sections stained with hematoxylin and eosin dyes were also examined. […] Therefore, no toxicity was found in mice carrying nasopharyngeal C666-1-GFP-Luc2 when treated with Cu(II) complexes at the doses of 4 mg/kg and 5 mg/kg. The underlying cause of death, presumed to be due to toxicity at the dose of 6 mg/kg, could not be ascertained conclusively because although the liver size was smaller in the treated group, the histopathology of the liver appeared normal and no other abnormalities were detected other than lower spleen size.
2.0 x 10^6 HK1 or C666-1-GFP-Luc2 cells in 100 μl RPMI media mixed with matrigel (BD Matrigel Basement Membrane Matrix; BD Biosciences, Bedford, MA, USA) was inoculated subcutaneously into the right lower flank of the NSG mice. Tumor growth was monitored and measured every other day using a digital caliper (Mitutoyo America Corporation, Aurora, Illinois, USA) until they reached 100–250 mm^3. Then, the mice were randomly assigned into treatment groups. The mice bearing HK1 xenograft tumor were divided into 3 treatment groups and a control (normal saline) group. The first batch received normal saline (one injection daily for 5 days), 6 mg/kg (one injection daily for 5 days) and 8 mg/kg (one injection every other day for 3 doses) of Cu(II) complex while the second batch received normal saline (one injection daily for 4 days), 4 mg/kg (one injection daily for 4 days), 6 mg/kg (one injection daily for 4 days) and 8 mg/kg (one injection every other day for 2 doses) of Cu(II) complex via intraperitoneal route.
Subsequently, for the efficacy assay using mice bearing C666-1-GFP-Luc2 cells, 3 sets of control group versus experimental group were tested in three independent experiments. Mice were randomly assigned into 4, 5 or 6 mg/kg Cu(II) complex and their control groups respectively. Injections were given once daily for 12 to 18 days. Body weight change, food intake, signs of toxicity/morbidity as well as mortality were observed and recorded daily for the duration of the entire experiment. Tumor volumes were determined using a caliper thrice weekly. Tumor volumes were calculated according to the following formula: Tumor volume (mm^3) = (length [mm] X width^2 [mm^2])/2. At the end point of the studies, mice were placed under anesthesia for blood collection via submandibular and cardiac puncture before they were sacrificed for histopathological investigations. Tumors were harvested, imaged, weighed and fixed in formalin.
All H&E-stained tissue section slides were examined under Nikon Eclipse Ni microscope (Nikon Instruments Inc., New York, USA) and microscopic images were taken using 20x and 40x objectives. For H&E tumor section slides, the percentage of tumor necrosis was determined qualitatively using microscope by the histopathologist in order to estimate the percentage of necrotic area induced by the Cu(II) complex in the tumors. For determination of femoral bone marrow suppression, low power (10x magnification) objective was used to scan the slides while 100x magnification to assess the degree of cellularity and amount of fat present.
Firstly, 4 ml of rhodamine stock solution was combined with 46 ml of acetate buffer solution in order to prepare a working rhodamine solution. Tissue sections were prepared, deparaffinized and hydrated in distilled water. Then, a loosely capped staining jar containing working rhodamine was warmed in the microwave oven (Panasonic Corporation, Osaka, Japan). The slide with tissue section was placed in warmed working rhodamine solution and reheated using microwave oven. […]

[4] = system: cervical, ovarian, lung, breast, lymphoma, leukemia, colorectal carcinoma and NPC cell lines; design: method as in PMID 24549332; conditions: 24 h; HeLa, SKOV3, A549, PC9, MCF7, Namalwa, HL60, SW480, SW48, HCT118, HONE1, HK1, C666-1; cited from earlier work

T1 sequence (P11712 whole entry): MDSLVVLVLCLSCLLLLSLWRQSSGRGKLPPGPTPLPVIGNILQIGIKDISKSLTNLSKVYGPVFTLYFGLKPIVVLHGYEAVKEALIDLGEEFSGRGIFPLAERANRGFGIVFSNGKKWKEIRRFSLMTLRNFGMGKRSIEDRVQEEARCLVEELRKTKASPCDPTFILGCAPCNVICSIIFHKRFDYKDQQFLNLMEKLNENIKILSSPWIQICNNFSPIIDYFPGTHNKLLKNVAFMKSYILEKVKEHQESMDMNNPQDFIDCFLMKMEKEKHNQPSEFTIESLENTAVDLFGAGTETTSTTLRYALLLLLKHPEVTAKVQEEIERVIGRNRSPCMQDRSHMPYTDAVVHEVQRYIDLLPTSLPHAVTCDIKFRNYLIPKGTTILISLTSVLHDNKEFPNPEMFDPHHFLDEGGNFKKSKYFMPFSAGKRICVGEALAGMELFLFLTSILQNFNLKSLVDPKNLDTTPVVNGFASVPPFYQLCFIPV

CC(C)(N)C(=O)[O-].O.O=[N+]([O-])[O-].[Cu+2].c1cnc2c(c1)ccc1cccnc12 [Cu(II) complex, [Cu(phen)(C-dmg)(H2O)]NO3]
Fold induction CYP1A (CYP1A; 0.1 μM): 1.1 | % of positive control CYP1A (CYP1A; 0.1 μM): 10.1% | Fold induction CYP1A (CYP1A; 0.3 μM): 1.4 | % of positive control CYP1A (CYP1A; 0.3 μM): 13.0% | Fold induction CYP1A (CYP1A; 1.0 μM): 0.8 | % of positive control CYP1A (CYP1A; 1.0 μM): 7.4% | induction, % of positive control, CYP1A (CYP1A; 0.1-1.0 μM): < 13% | IC50 [1]: 5 to 10 µM | CC50 [2]: > 100 µM | cytotoxicity compared with cisplatin (mean LC50) ([2]; NCI60 panel): fivefold more cytotoxic | CC50 ([2]; read-out: LC50, all renal cell lines): 1 to 10 µM | CC50 ([2]; read-out: LC50, leukemia panel (CCRF-CEM, HL-60(TB), K-562, MOLT-2, RPMI-8226, SR)): > 100 µM | GI50 ([2]; read-out: mean GI50, NCI60 panel, 48 h): 1510 nM | CC50 ([2]; read-out: mean LC50, NCI60 panel, 48 h): 9.12 µM | concentrations at which cytotoxicity is exhibited (rat primary hepatocytes): over 3 μM | IC50 (rat primary hepatocytes; read-out: IC50 (cytotoxic concentration that kills 50% of the cells), resazurin assay): 4.7 µM | IC50 (CYP 2C9): 8.56 µM | tumor growth ([3]; 4 mg/kg ip daily, 18 days): not effective | survival throughout the experiment ([3]; 6 mg/kg ip daily): only one mouse out of four | Copper staining of liver sections ([3]; 4, 5 and 6 mg/kg): negative for copper deposits | body weight ([3]; 4, 5 and 6 mg/kg): little influence | weight of vital organs ([3]; 4, 5 and 6 mg/kg, except for liver in the 6 mg/kg group): no significant differences | tolerability ([3]; 4 and 5 mg/kg dose regimens): well tolerated | tumor growth ([3]; 5 and 6 mg/kg ip daily): significant tumor growth inhibition | Histopathological examination of heart, liver, kidney and lung ([3]; all the groups): did not show any obvious abnormal changes | necrotic area in the tumor xenografts ([3]; treated groups vs control groups, concentration dependent): higher percentage of necrotic area | IC50 [4]: 1.7 to 19 µM
